According to publication PMC3078184 (Cancer research, 2011):

Experiments:
[1] = biological target: T1, ABCG2 (Homo sapiens, UniProt Q9UNQ0); test: vanadate-sensitive ATPase stimulation in membrane vesicles; type: biochemical
T1 sequence (Q9UNQ0 1-655): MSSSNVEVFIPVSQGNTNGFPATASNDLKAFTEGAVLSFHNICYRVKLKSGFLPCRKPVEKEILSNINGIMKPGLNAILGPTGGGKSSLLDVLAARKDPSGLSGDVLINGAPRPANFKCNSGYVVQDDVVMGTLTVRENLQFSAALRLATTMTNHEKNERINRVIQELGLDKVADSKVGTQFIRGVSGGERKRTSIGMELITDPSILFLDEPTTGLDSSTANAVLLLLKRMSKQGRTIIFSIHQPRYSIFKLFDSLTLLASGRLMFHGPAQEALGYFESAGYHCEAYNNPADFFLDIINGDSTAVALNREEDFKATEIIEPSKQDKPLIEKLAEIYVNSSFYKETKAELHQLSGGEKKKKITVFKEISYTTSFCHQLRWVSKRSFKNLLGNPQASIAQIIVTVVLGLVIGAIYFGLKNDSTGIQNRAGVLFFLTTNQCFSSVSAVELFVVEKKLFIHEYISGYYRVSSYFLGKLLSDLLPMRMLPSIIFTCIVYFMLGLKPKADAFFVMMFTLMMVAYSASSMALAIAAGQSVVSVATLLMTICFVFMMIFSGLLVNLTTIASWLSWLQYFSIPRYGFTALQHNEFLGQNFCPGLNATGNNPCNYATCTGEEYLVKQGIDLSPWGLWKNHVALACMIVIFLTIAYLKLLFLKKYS

[2] = biological target: ABCB1 (Homo sapiens, UniProt P08183); test: as above; type: biochemical
Sequence of ABCB1 (P08183 whole entry): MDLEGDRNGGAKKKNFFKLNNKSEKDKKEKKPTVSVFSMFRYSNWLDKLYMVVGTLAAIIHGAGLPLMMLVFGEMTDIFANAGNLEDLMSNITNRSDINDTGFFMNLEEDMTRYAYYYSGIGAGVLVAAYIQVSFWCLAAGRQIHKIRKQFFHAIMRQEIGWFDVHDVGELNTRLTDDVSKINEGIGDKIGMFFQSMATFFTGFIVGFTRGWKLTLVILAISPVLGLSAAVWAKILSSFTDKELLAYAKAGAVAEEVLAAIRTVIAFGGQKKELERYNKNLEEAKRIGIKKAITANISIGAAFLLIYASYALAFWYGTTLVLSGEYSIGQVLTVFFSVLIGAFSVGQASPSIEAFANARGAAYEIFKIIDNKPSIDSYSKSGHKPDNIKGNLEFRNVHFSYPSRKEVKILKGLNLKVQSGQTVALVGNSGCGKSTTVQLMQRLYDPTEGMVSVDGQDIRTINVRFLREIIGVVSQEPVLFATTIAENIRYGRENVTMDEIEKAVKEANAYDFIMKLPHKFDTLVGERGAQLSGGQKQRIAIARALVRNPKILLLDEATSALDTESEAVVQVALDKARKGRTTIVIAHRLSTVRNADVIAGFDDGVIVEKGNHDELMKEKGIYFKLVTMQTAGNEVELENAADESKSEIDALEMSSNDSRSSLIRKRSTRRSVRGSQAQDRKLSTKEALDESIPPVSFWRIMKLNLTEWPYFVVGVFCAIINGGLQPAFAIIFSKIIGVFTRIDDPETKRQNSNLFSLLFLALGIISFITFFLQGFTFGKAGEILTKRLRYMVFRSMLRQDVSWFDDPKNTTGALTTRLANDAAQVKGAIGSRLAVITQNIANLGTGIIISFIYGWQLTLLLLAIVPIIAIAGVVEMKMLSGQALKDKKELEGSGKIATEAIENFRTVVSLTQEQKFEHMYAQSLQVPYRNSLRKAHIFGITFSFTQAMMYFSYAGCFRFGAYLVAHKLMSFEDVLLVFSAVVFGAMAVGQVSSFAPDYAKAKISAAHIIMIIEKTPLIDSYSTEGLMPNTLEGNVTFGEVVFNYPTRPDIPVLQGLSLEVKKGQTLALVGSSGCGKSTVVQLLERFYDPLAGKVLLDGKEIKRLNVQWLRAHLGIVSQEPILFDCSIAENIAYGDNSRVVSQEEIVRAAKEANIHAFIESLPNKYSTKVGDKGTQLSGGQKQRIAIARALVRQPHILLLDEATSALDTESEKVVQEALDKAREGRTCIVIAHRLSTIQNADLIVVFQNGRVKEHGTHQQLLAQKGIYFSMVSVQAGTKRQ

Which results are given for CCCc1nn(C)c2c(=O)[nH]c(-c3cc(S(=O)(=O)N4CCN(C)CC4)ccc3OCC)nc12 [Sildenafil]?
EC50 [1]: 250 to 500 nM; EC50 [2]: 5 to 10 µM
